Test results: US7767676B2, “Dihydro-1,3,5-triazine amine derivatives and their therapeutic uses” (Merck Sante, priority 2000, dated 2010)
Structures can show the parent of a compound that is named as a salt. Where two headings read alike, the source gives them in different places.

How the values were obtained:
[1] = tested on: non-insulin-dependent diabetes induced in rats by Streptozotocin; assay: Antidiabetic activity in the Nostz rat (non-insulin-dependent diabetes induced by neonatal streptozotocin), glycaemia after oral treatment; assay type: in vivo; conditions: diabetic rats, blood 2 h after last administration; for change in vivo at 20 mg/kg: 20 mg/kg/D oral; for change in vivo at 200 mg/kg: 200 mg/kg/D oral
Procedure: Study of the Antidiabetic Activity in the Nostz Rat
The antidiabetic activity of the compounds of formula (I) administered orally was determined on an experimental model of non-insulin-dependent diabetes induced in rats by Streptozotocin.
The non-insulin-dependent diabetes model is obtained in rats by neonatal injection (on the day of birth) of streptozotocin.
The diabetic rats used were 8 weeks old. The animals were kept, from the day of their birth to the day of the experiment, in an animal house at a controlled temperature of 21 to 22° C. and subjected to a fixed cycle of light (from 7 am to 7 pm) and darkness (from 7 pm to 7 am). Their diet consisted of a maintenance diet, water and food were provided “ab libitum”, with the exception of the 2 hours of fasting preceding the tests when the food is withdrawn (postabsorptive state).
The rats were treated by the oral route for one (D1) or four (D4) days with the product to be tested. Two hours after the last administration of the product and 30 minutes after anaesthetizing the animals with sodium pentobarbital (Nembutal a), 300 μl of blood sample are collected from the end of the tail.
By way of example, results obtained are assembled in Table III.

[2] = 24 h, 1 day of treatment, read-out: percentage variation of glycaemia at D1 relative to D0
[3] = 96 h, 4 days of treatment, read-out: percentage variation of glycaemia at D4 relative to D0

For `CN(C)C1=NC(C(F)(F)F)N=C(N)N1` (centres unmarked) (as salt: toluenesulphonate) [Compound 36], the melting point was 251 to 253 °C.

`CCCC1N=C(N)NC(N(C)C)=N1` (centres unmarked) [Compound 32] showed a change in vivo at 20 mg/kg [1, 2] of 2%, a change in vivo at 200 mg/kg [1, 2] of -22% and a change in vivo at 20 mg/kg [1, 3] of 0%. The change in vivo at 200 mg/kg [1, 3] was -18%.

Work on `CC(CCC(=O)O)[C@H]1CCC2C3C(C[C@H](O)[C@@]21C)[C@@]1(C)CCC2(CC1C[C@H]3O)N=C(N)NC(N(C)C)=N2` (some centres unmarked) [Compound 25] yielded a change in vivo at 20 mg/kg [1, 2] of -4%, a change in vivo at 200 mg/kg [1, 2] of -7% and a change in vivo at 20 mg/kg [1, 3] of -11%. It also gave a change in vivo at 200 mg/kg [1, 3] of -6%.

`CN(C)C1=NC(C)(CCCO)N=C(N)N1` (centres unmarked) (as salt: HCl) [Compound 7] showed a melting point of 150 to 152 °C.

With `CNC1=NC2(CCCCC2)N=C(N(C)C)N1` [Compound 22] the change in vivo at 20 mg/kg [1, 2] was -23%, the change in vivo at 200 mg/kg [1, 2] was -13% and the change in vivo at 20 mg/kg [1, 3] was -16%. The change in vivo at 200 mg/kg [1, 3] was 0%.

Work on `CN(C)C1=NC(C)(C)N=C(N)N1` [Compound 3] yielded a change in vivo at 20 mg/kg [1, 2] of -10%, a change in vivo at 200 mg/kg [1, 2] of -18% and a change in vivo at 20 mg/kg [1, 3] of -8%. It also gave a change in vivo at 200 mg/kg [1, 3] of -22%.

For `CN(C)C1=NC(C(C)(C)C)N=C(N)N1` (centres unmarked) (as salt: HCl) [Compound 42], the melting point was greater than 260 °C.

`CN(C)C1=NC(C(C)(C)C)N=C(N)N1` (centres unmarked) [Compound 42] gave a change in vivo at 20 mg/kg [1, 2] of -5%, a change in vivo at 200 mg/kg [1, 2] of -26% and a change in vivo at 20 mg/kg [1, 3] of -4%. The change in vivo at 200 mg/kg [1, 3] was -17%.

Work on `CN(C)C1=NC(Cc2ccccc2)N=C(N)N1` (centres unmarked) (as salt: toluenesulphonate) [Compound 37] yielded a melting point of 159 to 161 °C.

With `CN(C)C1=NC2(CCC(O)CC2)N=C(N)N1` (centres unmarked) [Compound 28] the change in vivo at 20 mg/kg [1, 2] was -4%, the change in vivo at 200 mg/kg [1, 2] was -4% and the change in vivo at 20 mg/kg [1, 3] was -1%. It also gave a change in vivo at 200 mg/kg [1, 3] of -13%.

For `CN(C)C1=NC2(CCC(O)CC2)N=C(N)N1` (centres unmarked) (as salt: HCl) [Compound 28], the melting point was greater than 250 °C.

Work on `COc1ccc(C2N=C(N)NC(N(C)C)=N2)cc1` (centres unmarked) (as salt: HCl) [Compound 11] yielded a melting point of 221 to 223 °C.

For `CCC1(CC)N=C(N)NC(N(C)C)=N1` (as salt: salt) [Compound 30], the melting point was 140 to 144 °C.

Compound `CN(C)C1=NC(c2ccccc2)N=C(N)N1` (centres unmarked) (as salt: HCl) [Compound 10] has a melting point of 239 to 241 °C.

Compound `CCNC1=NC2(CCCCC2)N=C(N(C)C)N1` (as salt: HCl) [Compound 23] has a melting point of 248 to 250 °C.

For `CN(C)C1=NC2(CCCCC2)N=C(N)N1` (as salt: HCl) [Compound 4], the melting point was 243 to 245 °C.

`CC1N=C(N(C)C)NC(N2CCCC2)=N1` (centres unmarked) [Compound 21] showed a change in vivo at 20 mg/kg [1, 2] of -7%, a change in vivo at 200 mg/kg [1, 2] of -21% and a change in vivo at 20 mg/kg [1, 3] of -2%. It also gave a change in vivo at 200 mg/kg [1, 3] of -24%.

Work on `CN(C)C1=NC(C2CCCCC2)N=C(N)N1` (centres unmarked) (as salt: toluenesulphonate) [Compound 34] yielded a melting point of 201 to 203 °C.

Work on `CN(C)C1=NC(C)(C)N=C(N2CCCC2)N1` (as salt: HCl) [Compound 17] yielded a melting point greater than 260 °C.

`CN(C)C1=NC(C)(C)N=C(N(C)C)N1` [Compound 15] showed a change in vivo at 20 mg/kg [1, 2] of -8%, a change in vivo at 200 mg/kg [1, 2] of -4% and a change in vivo at 20 mg/kg [1, 3] of -9%. It also gave a change in vivo at 200 mg/kg [1, 3] of -5%.

Compound `CN(C)C1=NC2(CCCC2)N=C(N)N1` [Compound 31] has a change in vivo at 20 mg/kg [1, 2] of -5%, a change in vivo at 200 mg/kg [1, 2] of -3% and a change in vivo at 20 mg/kg [1, 3] of -11%. It also gave a change in vivo at 200 mg/kg [1, 3] of -15%.

For `CN1CCC2(CC1)N=C(N)NC(N(C)C)=N2` [Compound 39], the change in vivo at 20 mg/kg [1, 2] was -6%, the change in vivo at 200 mg/kg [1, 2] was -4% and the change in vivo at 20 mg/kg [1, 3] was -6%. For the same compound, the change in vivo at 200 mg/kg [1, 3] was -7%.

In the case of `CN(C)C1=NC(C)(C)N=C(N(C)C)N1` (as salt: HCl) [Compound 15], the melting point is reported as 250 to 252 °C.

Compound `CN(C)C1=NC(COc2ccccc2)N=C(N)N1` (centres unmarked) (as salt: toluenesulphonate) [Compound 41] has a melting point of 194 to 196 °C.

Compound `CN(C)C1=NC(C2CC=CCC2)N=C(N)N1` (centres unmarked) (as salt: toluenesulphonate) [Compound 45] has a melting point of 217 to 219 °C.

Work on `CN(C)C1=NC(C)(CCCO)N=C(N)N1` (centres unmarked) [Compound 7] yielded a change in vivo at 20 mg/kg [1, 2] of -8%, a change in vivo at 200 mg/kg [1, 2] of -10% and a change in vivo at 20 mg/kg [1, 3] of -11%. For the same compound, the change in vivo at 200 mg/kg [1, 3] was -16%.

For `CC(CCC(=O)O)[C@H]1CCC2C3CCC4CC5(CC[C@]4(C)C3CC[C@@]21C)N=C(N)NC(N(C)C)=N5` (some centres unmarked) (as salt: HCl), the melting point was greater than 260 °C.

Compound `C=CCNC1=NC(C)N=C(N(C)C)N1` (centres unmarked) (as salt: HCl) [Compound 26] has a melting point of 91 to 92 °C.

With `CN(C)C1=NC2(CCC(OCc3ccccc3)CC2)N=C(N)N1` (centres unmarked) [Compound 27] the change in vivo at 20 mg/kg [1, 2] was -14%, the change in vivo at 200 mg/kg [1, 2] was -12% and the change in vivo at 20 mg/kg [1, 3] was -9%. For the same compound, the change in vivo at 200 mg/kg [1, 3] was -13%.

In the case of `CC(C)CCCC(C)[C@H]1CCC2C3CCC4CC5(CC[C@]4(C)C3CC[C@@]21C)N=C(N)NC(N(C)C)=N5` (some centres unmarked) [Compound 19], the change in vivo at 20 mg/kg [1, 2] is reported as -10%, the change in vivo at 200 mg/kg [1, 2] is reported as -4% and the change in vivo at 20 mg/kg [1, 3] is reported as -6%. It also gave a change in vivo at 200 mg/kg [1, 3] of -14%.

For `NC1=NC2(CCCCC2)N=C(NCCc2ccccc2)N1` (as salt: salt) [Compound 20], the melting point was 170 to 180 °C.

With `CN1CCC2(CC1)N=C(N)NC(N(C)C)=N2` (as salt: HCl) [Compound 39] the melting point was greater than 260 °C.

In the case of `CC(C)NC1=NC(C)(C)N=C(N(C)C)N1` (as salt: HCl) [Compound 9], the melting point is reported as 149 to 151 °C.

In the case of `CC1N=C(N(C)C)NC(N(C)C)=N1` [Compound 2, 2,4-bisdimethylamino-3,6-dihydro-6-methyl-1,3,5-triazine hydrochloride], the change in vivo at 20 mg/kg [1, 2] is reported as -11%, the change in vivo at 200 mg/kg [1, 2] is reported as -12% and the change in vivo at 20 mg/kg [1, 3] is reported as -10%. For the same compound, the change in vivo at 200 mg/kg [1, 3] was -12%.

`CCNC1=NC(C)(C)N=C(N(C)C)N1` (as salt: fumarate) [Compound 14] showed a melting point of 172 to 174 °C.

`CN(C)C1=NC(C)(C)N=C(N2CCCC2)N1` [Compound 17] gave a change in vivo at 20 mg/kg [1, 2] of -12%, a change in vivo at 200 mg/kg [1, 2] of -8% and a change in vivo at 20 mg/kg [1, 3] of -8%. It also gave a change in vivo at 200 mg/kg [1, 3] of -14%.

`CNC1=NC2(CCCCC2)N=C(N(C)C)N1` (as salt: HCl) [Compound 22] gave a melting point greater than 260 °C.

With `CN(C)C1=NC(c2ccc(O)cc2)N=C(N)N1` (centres unmarked) (as salt: HCl) [Compound 12] the melting point was 251 to 253 °C.

Work on `CN(C)C1=NC2(CCC(OCc3ccccc3)CC2)N=C(N)N1` (centres unmarked) (as salt: HCl) [Compound 27] yielded a melting point greater than 260 °C.

Compound `CN(C)C1=NC2(CCCCC2)N=C(N)N1` [Compound 4] has a change in vivo at 20 mg/kg [1, 2] of 0%, a change in vivo at 200 mg/kg [1, 2] of -20% and a change in vivo at 20 mg/kg [1, 3] of -1%. The change in vivo at 200 mg/kg [1, 3] was -10%.

`CC1N=C(N(C)C)NC(N(C)C)=N1` (as salt: HCl) [Compound 2, 2,4-bisdimethylamino-3,6-dihydro-6-methyl-1,3,5-triazine hydrochloride] gave a melting point of 200 to 202 °C.

Compound `CN(C)C1=NC2(CCOCC2)N=C(N)N1` (as salt: HCl) [Compound 38] has a melting point greater than 260 °C.

Work on `C=CCNC1=NC(C)N=C(N(C)C)N1` (centres unmarked) [Compound 26] yielded a change in vivo at 20 mg/kg [1, 2] of -6%, a change in vivo at 200 mg/kg [1, 2] of -14% and a change in vivo at 20 mg/kg [1, 3] of -11%. For the same compound, the change in vivo at 200 mg/kg [1, 3] was -9%.

Compound `CC(C)C1N=C(N)NC(N(C)C)=N1` (centres unmarked) [Compound 44] has a change in vivo at 20 mg/kg [1, 2] of -7%, a change in vivo at 200 mg/kg [1, 2] of -22% and a change in vivo at 20 mg/kg [1, 3] of -6%. It also gave a change in vivo at 200 mg/kg [1, 3] of -25%.
